Data published in PubChem BioAssay (NCI).
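Test compounds were applied to cells in 96-well plates for 48 hours at 5 doses. GI50 marks 50% less growth. At the TGI there is no net growth.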

Columns and labels:
Experiment in all cases: NCI anticancer screen, dose series, 48 h
786-0 renal = system: 786-0 renal
A498 renal = system: A498 renal
A549 NSCLC = system: A549 NSCLC
ACHN renal = system: ACHN renal
BT-549 breast = system: BT-549 breast
CAKI-1 renal = system: CAKI-1 renal
CCRF-CEM leukemia = system: CCRF-CEM leukemia
COLO 205 colon = system: COLO 205 colon
DU-145 prostate = system: DU-145 prostate
EKVX NSCLC = system: EKVX NSCLC
HCC-2998 colon = system: HCC-2998 colon
HCT-116 colon = system: HCT-116 colon
HCT-15 colon = system: HCT-15 colon
HL-60(TB) leukemia = system: HL-60(TB) leukemia
HOP-62 NSCLC = system: HOP-62 NSCLC
HOP-92 NSCLC = system: HOP-92 NSCLC
HS 578T breast = system: HS 578T breast
HT29 colon = system: HT29 colon
IGROV1 ovarian = system: IGROV1 ovarian
K-562 leukemia = system: K-562 leukemia
KM12 colon = system: KM12 colon
LOX IMVI melanoma = system: LOX IMVI melanoma
M14 melanoma = system: M14 melanoma
MALME-3M melanoma = system: MALME-3M melanoma
MCF7 breast = system: MCF7 breast
MDA-MB-231 breast = system: MDA-MB-231 breast
MDA-MB-435 = system: MDA-MB-435
MDA-MB-468 breast = system: MDA-MB-468 breast
MOLT-4 leukemia = system: MOLT-4 leukemia
NCI-H226 lung = system: NCI-H226 lung
NCI-H23 lung = system: NCI-H23 lung
NCI-H460 lung = system: NCI-H460 lung
NCI-H522 lung = system: NCI-H522 lung
NCI/ADR-RES ovarian = system: NCI/ADR-RES ovarian
OVCAR-3 ovarian = system: OVCAR-3 ovarian
OVCAR-4 ovarian = system: OVCAR-4 ovarian
OVCAR-5 ovarian = system: OVCAR-5 ovarian
OVCAR-8 ovarian = system: OVCAR-8 ovarian
PC-3 prostate = system: PC-3 prostate
RPMI-8226 leukemia = system: RPMI-8226 leukemia
RXF 393 renal = system: RXF 393 renal
SF-268 CNS = system: SF-268 CNS
SF-295 CNS = system: SF-295 CNS
SF-539 CNS = system: SF-539 CNS
SK-MEL-2 melanoma = system: SK-MEL-2 melanoma
SK-MEL-28 melanoma = system: SK-MEL-28 melanoma
SK-MEL-5 melanoma = system: SK-MEL-5 melanoma
SK-OV-3 ovarian = system: SK-OV-3 ovarian
SN12C renal = system: SN12C renal
SNB-19 CNS = system: SNB-19 CNS
SR leukemia = system: SR leukemia
SW-620 colon = system: SW-620 colon
T-47D breast = system: T-47D breast
TK-10 renal = system: TK-10 renal
U251 CNS = system: U251 CNS
UACC-257 melanoma = system: UACC-257 melanoma
UACC-62 melanoma = system: UACC-62 melanoma
UO-31 renal = system: UO-31 renal

Which GI50 (786-0 renal) does the source give for `COc1ccc(C(=O)/C=C/c2ccccc2Br)cc1S(N)(=O)=O` here?
Its GI50 is 1.81 µM.

And the TGI (786-0 renal)?
The TGI was 3.66 µM.

What about the GI50 (A498 renal) of the same compound?
Its GI50 is 11.4 µM.

And the TGI (A498 renal)?
Its TGI is 24.1 µM.

And the GI50 (A549 NSCLC)?
Its GI50 is 2.67 µM.

And the TGI (A549 NSCLC)?
Its TGI is 8.9 µM.

What about the GI50 (ACHN renal) of the same compound?
The GI50 was 1.84 µM.

What about the TGI (ACHN renal) of the same compound?
The TGI was 3.56 µM.

And the GI50 (BT-549 breast)?
Its GI50 is 4.56 µM.

What about the TGI (BT-549 breast) of the same compound?
Its TGI is 16.8 µM.

And the GI50 (CAKI-1 renal)?
The GI50 was 4.24 µM.

What about the TGI (CAKI-1 renal) of the same compound?
Its TGI is 16.2 µM.

What about the GI50 (CCRF-CEM leukemia) of the same compound?
The GI50 was 3.07 µM.

What about the TGI (CCRF-CEM leukemia) of the same compound?
The TGI was 11.1 µM.

And the GI50 (COLO 205 colon)?
Its GI50 is 2.21 µM.

What about the TGI (COLO 205 colon) of the same compound?
Its TGI is 4.49 µM.

And the GI50 (DU-145 prostate)?
Its GI50 is 3.35 µM.

What about the TGI (DU-145 prostate) of the same compound?
Its TGI is 11.4 µM.

And the GI50 (EKVX NSCLC)?
Its GI50 is 9.86 µM.

And the TGI (EKVX NSCLC)?
The TGI was 21.8 µM.

And the GI50 (HCC-2998 colon)?
Its GI50 is 2.9 µM.

What about the TGI (HCC-2998 colon) of the same compound?
Its TGI is 12.4 µM.

And the GI50 (HCT-116 colon)?
The GI50 was 1.52 µM.

And the TGI (HCT-116 colon)?
Its TGI is 3.02 µM.

What about the GI50 (HCT-15 colon) of the same compound?
The GI50 was 1.65 µM.

And the TGI (HCT-15 colon)?
The TGI was 3.45 µM.

And the GI50 (HL-60(TB) leukemia)?
The GI50 was 2.64 µM.

And the TGI (HL-60(TB) leukemia)?
Its TGI is 17.2 µM.

What about the GI50 (HOP-62 NSCLC) of the same compound?
The GI50 was 2.41 µM.

And the TGI (HOP-62 NSCLC)?
The TGI was 7.39 µM.

What about the GI50 (HOP-92 NSCLC) of the same compound?
The GI50 was 3.29 µM.

What about the TGI (HOP-92 NSCLC) of the same compound?
Its TGI is 16 µM.

What about the GI50 (HS 578T breast) of the same compound?
The GI50 was 8.91 µM.

What about the TGI (HS 578T breast) of the same compound?
The TGI was 72 µM.

And the GI50 (HT29 colon)?
The GI50 was 2.27 µM.

What about the TGI (HT29 colon) of the same compound?
Its TGI is 4.9 µM.

And the GI50 (IGROV1 ovarian)?
The GI50 was 2.76 µM.

What about the TGI (IGROV1 ovarian) of the same compound?
The TGI was 10 µM.

What about the GI50 (K-562 leukemia) of the same compound?
The GI50 was 1.85 µM.

And the TGI (K-562 leukemia)?
Its TGI is 5.09 µM.

And the GI50 (KM12 colon)?
Its GI50 is 1.87 µM.

What about the TGI (KM12 colon) of the same compound?
The TGI was 4.01 µM.

And the GI50 (LOX IMVI melanoma)?
The GI50 was 1.65 µM.

What about the TGI (LOX IMVI melanoma) of the same compound?
The TGI was 3.02 µM.

What about the GI50 (M14 melanoma) of the same compound?
The GI50 was 6.83 µM.

And the TGI (M14 melanoma)?
Its TGI is 21.3 µM.

What about the GI50 (MALME-3M melanoma) of the same compound?
The GI50 was 10.8 µM.

What about the TGI (MALME-3M melanoma) of the same compound?
Its TGI is 22.7 µM.

And the GI50 (MCF7 breast)?
Its GI50 is 2.89 µM.

What about the TGI (MCF7 breast) of the same compound?
Its TGI is 11.3 µM.

And the GI50 (MDA-MB-231 breast)?
The GI50 was 2.09 µM.

And the TGI (MDA-MB-231 breast)?
The TGI was 4.69 µM.

And the GI50 (MDA-MB-435)?
Its GI50 is 7.18 µM.

And the TGI (MDA-MB-435)?
The TGI was 20.1 µM.

What about the GI50 (MDA-MB-468 breast) of the same compound?
Its GI50 is 2.56 µM.

What about the TGI (MDA-MB-468 breast) of the same compound?
Its TGI is 13.2 µM.

What about the GI50 (MOLT-4 leukemia) of the same compound?
The GI50 was 1.93 µM.

What about the TGI (MOLT-4 leukemia) of the same compound?
The TGI was 5 µM.

What about the GI50 (NCI-H226 lung) of the same compound?
The GI50 was 2.47 µM.

What about the TGI (NCI-H226 lung) of the same compound?
Its TGI is 6.96 µM.

What about the GI50 (NCI-H23 lung) of the same compound?
The GI50 was 3.22 µM.

What about the TGI (NCI-H23 lung) of the same compound?
Its TGI is 12.7 µM.

What about the GI50 (NCI-H460 lung) of the same compound?
The GI50 was 1.94 µM.

And the TGI (NCI-H460 lung)?
Its TGI is 4.58 µM.

What about the GI50 (NCI-H522 lung) of the same compound?
The GI50 was 1.77 µM.

And the TGI (NCI-H522 lung)?
Its TGI is 4.12 µM.

And the GI50 (NCI/ADR-RES ovarian)?
The GI50 was 2.28 µM.

And the TGI (NCI/ADR-RES ovarian)?
Its TGI is 5.67 µM.

And the GI50 (OVCAR-3 ovarian)?
The GI50 was 2.09 µM.

And the TGI (OVCAR-3 ovarian)?
The TGI was 4.73 µM.

And the GI50 (OVCAR-4 ovarian)?
The GI50 was 3.25 µM.

What about the TGI (OVCAR-4 ovarian) of the same compound?
Its TGI is 13.1 µM.

And the GI50 (OVCAR-5 ovarian)?
The GI50 was 2.2 µM.

What about the TGI (OVCAR-5 ovarian) of the same compound?
The TGI was 5.99 µM.

What about the GI50 (OVCAR-8 ovarian) of the same compound?
The GI50 was 2.62 µM.

And the TGI (OVCAR-8 ovarian)?
Its TGI is 8.33 µM.

And the GI50 (PC-3 prostate)?
The GI50 was 4.28 µM.

What about the TGI (PC-3 prostate) of the same compound?
Its TGI is 16.9 µM.

And the GI50 (RPMI-8226 leukemia)?
Its GI50 is 2.3 µM.

What about the TGI (RPMI-8226 leukemia) of the same compound?
The TGI was 6.84 µM.

And the GI50 (RXF 393 renal)?
Its GI50 is 1.91 µM.

What about the TGI (RXF 393 renal) of the same compound?
Its TGI is 4.38 µM.

And the GI50 (SF-268 CNS)?
Its GI50 is 3.66 µM.

What about the TGI (SF-268 CNS) of the same compound?
Its TGI is 14.6 µM.

What about the GI50 (SF-295 CNS) of the same compound?
Its GI50 is 4.13 µM.

What about the TGI (SF-295 CNS) of the same compound?
The TGI was 16.1 µM.

What about the GI50 (SF-539 CNS) of the same compound?
Its GI50 is 1.74 µM.

What about the TGI (SF-539 CNS) of the same compound?
The TGI was 3.21 µM.

What about the GI50 (SK-MEL-2 melanoma) of the same compound?
Its GI50 is 14.4 µM.

What about the TGI (SK-MEL-2 melanoma) of the same compound?
Its TGI is 28.1 µM.

And the GI50 (SK-MEL-28 melanoma)?
The GI50 was 8.3 µM.

What about the TGI (SK-MEL-28 melanoma) of the same compound?
Its TGI is 20.5 µM.

And the GI50 (SK-MEL-5 melanoma)?
The GI50 was 7.78 µM.

What about the TGI (SK-MEL-5 melanoma) of the same compound?
The TGI was 20.5 µM.

And the GI50 (SK-OV-3 ovarian)?
The GI50 was 12.9 µM.

What about the TGI (SK-OV-3 ovarian) of the same compound?
Its TGI is 26 µM.

What about the GI50 (SN12C renal) of the same compound?
Its GI50 is 1.86 µM.

And the TGI (SN12C renal)?
The TGI was 4.15 µM.

What about the GI50 (SNB-19 CNS) of the same compound?
The GI50 was 4.26 µM.

And the TGI (SNB-19 CNS)?
The TGI was 16 µM.

And the GI50 (SR leukemia)?
Its GI50 is 1.48 µM.

What about the TGI (SR leukemia) of the same compound?
Its TGI is 4.43 µM.

And the GI50 (SW-620 colon)?
Its GI50 is 1.79 µM.

And the TGI (SW-620 colon)?
Its TGI is 4.04 µM.

What about the GI50 (T-47D breast) of the same compound?
Its GI50 is 3.57 µM.

And the TGI (T-47D breast)?
Its TGI is 15.8 µM.

And the GI50 (TK-10 renal)?
The GI50 was 3.29 µM.

And the TGI (TK-10 renal)?
Its TGI is 11.9 µM.

What about the GI50 (U251 CNS) of the same compound?
The GI50 was 1.49 µM.

What about the TGI (U251 CNS) of the same compound?
The TGI was 2.82 µM.

And the GI50 (UACC-257 melanoma)?
The GI50 was 11.9 µM.

And the TGI (UACC-257 melanoma)?
Its TGI is 24.5 µM.

And the GI50 (UACC-62 melanoma)?
Its GI50 is 3.64 µM.

What about the TGI (UACC-62 melanoma) of the same compound?
The TGI was 15.3 µM.

What about the GI50 (UO-31 renal) of the same compound?
The GI50 was 1.53 µM.

What about the TGI (UO-31 renal) of the same compound?
Its TGI is 3.05 µM.
